From the NIST ThermoML archive (doi:10.1021/acs.jced.8b00589)

Experiment: xn = mol fraction of the nth substance listed
Settings: for surface tension liquid-gas: Ring tensiometer; for viscosity / speed of sound / mass density: 100 kPa, Liquid; for viscosity: Capillary tube (Ostwald / Ubbelohde) method; for speed of sound: Frequency=2 MHz, Linear variable-path acoustic interferometer; for mass density: Vibrating tube method

CCC(C)(C)OC [2-methoxy-2-methylbutane] + CCCCCC
Settings	mass density [kg/m3]	speed of sound [m/s]	surface tension liquid-gas [mN/m]	viscosity [mPa·s]
298.15 K, x1 = 0.1632	672.8	1077.8	17.99	0.311
298.15 K, x1 = 0.2584	683.2	1082.2	18.21	0.318
298.15 K, x1 = 0.3742	695.5	1087.5	18.5	0.327
298.15 K, x1 = 0.4276	701.6	1088.6	18.62	0.331
298.15 K, x1 = 0.5464	714.8	1092.8	18.73	0.346
298.15 K, x1 = 0.6121	722.3	1096.1	18.88	0.356
298.15 K, x1 = 0.7457	737.2	1103.5	19.15	0.381
298.15 K, x1 = 0.8625	750.1	1112.2	19.42	0.402
298.15 K, x1 = 1	765.6	1118	19.72	0.424
308.15 K, x1 = 0.1632	663.2	1035.5	16.88	0.274
308.15 K, x1 = 0.2584	673.8	1039.4	17.1	0.281
308.15 K, x1 = 0.3742	686.5	1045.1	17.4	0.293
308.15 K, x1 = 0.4276	692.3	1046.8	17.52	0.298
308.15 K, x1 = 0.5464	705.2	1049.6	17.64	0.313
308.15 K, x1 = 0.6121	712.5	1053.2	17.79	0.322
308.15 K, x1 = 0.7457	727.4	1060.4	18.07	0.342
308.15 K, x1 = 0.8625	740.7	1069.2	18.35	0.362
308.15 K, x1 = 1	756.3	1075.6	18.66	0.39
318.15 K, x1 = 0.1632	653.5	984.7	15.78	0.249
318.15 K, x1 = 0.2584	663.8	988.75	16.01	0.256
318.15 K, x1 = 0.3742	676.6	994.36	16.33	0.266
318.15 K, x1 = 0.4276	682.4	996.61	16.46	0.271
318.15 K, x1 = 0.5464	695.3	1002.4	16.58	0.284
318.15 K, x1 = 0.6121	702.5	1006.8	16.74	0.292
318.15 K, x1 = 0.7457	717.7	1013.8	17.03	0.311
318.15 K, x1 = 0.8625	730.6	1022.8	17.32	0.331
318.15 K, x1 = 1	746.3	1030.2	17.65	0.357
323.15 K, x1 = 0.1632	648.6	963.82	15.22	0.239
323.15 K, x1 = 0.2584	658.8	967.24	15.47	0.245
323.15 K, x1 = 0.3742	671.5	971.83	15.78	0.254
323.15 K, x1 = 0.4276	677.3	973.34	15.92	0.258
323.15 K, x1 = 0.5464	690.4	977.27	16.04	0.27
323.15 K, x1 = 0.6121	697.6	980.49	16.2	0.277
323.15 K, x1 = 0.7457	712.5	984.8	16.5	0.294
323.15 K, x1 = 0.8625	725.8	994.84	16.8	0.312
323.15 K, x1 = 1	741.4	1003	17.13	0.335
328.15 K, x1 = 0.1632	643.6	942.3	14.67	0.23
328.15 K, x1 = 0.2584	653.7	945.14	14.92	0.235
328.15 K, x1 = 0.3742	666.5	949.52	15.24	0.244
328.15 K, x1 = 0.4276	672.3	951.24	15.38	0.248
328.15 K, x1 = 0.5464	685.3	955.05	15.5	0.259
328.15 K, x1 = 0.6121	692.6	958.72	15.67	0.266
328.15 K, x1 = 0.7457	707.5	963.63	15.97	0.283
328.15 K, x1 = 0.8625	720.8	974.08	16.27	0.301
328.15 K, x1 = 1	736.5	985.22	16.62	0.323

CCC(C)(C)OC [2-methoxy-2-methylbutane] + Cc1cccc(C)c1
Settings	mass density [kg/m3]	speed of sound [m/s]	surface tension liquid-gas [mN/m]	viscosity [mPa·s]
298.15 K, x1 = 0.1462	844.1	1299	26.87	0.561
298.15 K, x1 = 0.2667	833.4	1269.4	25.84	0.541
298.15 K, x1 = 0.4165	821.1	1235	24.69	0.519
298.15 K, x1 = 0.4774	816.2	1218.9	24.24	0.51
298.15 K, x1 = 0.5331	811.4	1205.2	23.82	0.502
298.15 K, x1 = 0.6068	805.3	1189.2	23.22	0.491
298.15 K, x1 = 0.7371	794.6	1165.8	22.07	0.47
298.15 K, x1 = 0.8642	782.7	1138	20.93	0.447
298.15 K, x1 = 1	765.6	1118	19.72	0.424
308.15 K, x1 = 0.1462	833.6	1254.4	25.64	0.501
308.15 K, x1 = 0.2667	822.5	1220.7	24.62	0.485
308.15 K, x1 = 0.4165	810.2	1182.3	23.47	0.468
308.15 K, x1 = 0.4774	805.1	1167	23.02	0.461
308.15 K, x1 = 0.5331	800.3	1155.1	22.61	0.454
308.15 K, x1 = 0.6068	794.4	1140.5	22.06	0.445
308.15 K, x1 = 0.7371	783.3	1118.1	20.94	0.428
308.15 K, x1 = 0.8642	771.8	1092.8	19.83	0.409
308.15 K, x1 = 1	756.3	1075.6	18.66	0.39
318.15 K, x1 = 0.1462	823.8	1209.3	24.36	0.46
318.15 K, x1 = 0.2667	813.1	1174.2	23.37	0.445
318.15 K, x1 = 0.4165	800.2	1134.5	22.25	0.428
318.15 K, x1 = 0.4774	794.8	1118.7	21.81	0.421
318.15 K, x1 = 0.5331	790.4	1105.4	21.41	0.415
318.15 K, x1 = 0.6068	784.1	1090.6	20.9	0.407
318.15 K, x1 = 0.7371	772.8	1067.2	19.83	0.391
318.15 K, x1 = 0.8642	761.3	1045.9	18.77	0.374
318.15 K, x1 = 1	746.3	1030.2	17.65	0.357
323.15 K, x1 = 0.1462	819.2	1186.3	23.73	0.424
323.15 K, x1 = 0.2667	808	1150.5	22.75	0.412
323.15 K, x1 = 0.4165	795.3	1107.7	21.65	0.399
323.15 K, x1 = 0.4774	789.8	1090.3	21.21	0.393
323.15 K, x1 = 0.5331	785.1	1076.2	20.82	0.389
323.15 K, x1 = 0.6068	778.8	1061.4	20.32	0.382
323.15 K, x1 = 0.7371	767.7	1037.8	19.27	0.369
323.15 K, x1 = 0.8642	755.8	1017	18.23	0.354
323.15 K, x1 = 1	741.4	1003	17.13	0.34
328.15 K, x1 = 0.1462	814.4	1160.6	23.1	0.414
328.15 K, x1 = 0.2667	803.3	1124	22.14	0.401
328.15 K, x1 = 0.4165	790.5	1082.2	21.05	0.387
328.15 K, x1 = 0.4774	785.2	1065.1	20.62	0.382
328.15 K, x1 = 0.5331	780.3	1051.8	20.23	0.377
328.15 K, x1 = 0.6068	773.7	1037.4	19.73	0.37
328.15 K, x1 = 0.7371	762.6	1013.9	18.71	0.357
328.15 K, x1 = 0.8642	750.8	995.44	17.69	0.342
328.15 K, x1 = 1	736.5	985.2	16.62	0.328
